Results from patent US5700838A, “Hydroxamic acid derivatives as metalloproteinase inhibitors” (British Biotech Pharmaceuticals Limited, priority 1992, dated 1997).
Converted amounts (≈) assume the structure as drawn. Where two headings read alike, the source gives them in different places.

What was measured:
[1] = Aqueous solubility at ambient temperature; assay type: physicochemical; conditions: in water
Experimental: The solubilities of compounds of the invention in water at ambient temperature were measured, and compared with comparison compounds C1 and C2 (identified in Biological Example A above).

[2] = target: T1, collagenase (Homo sapiens, UniProt P03956); conditions: read-out: Collagenase IC50; 37°, 16 hours, pH 7.5
T1 sequence (P03956 100-469): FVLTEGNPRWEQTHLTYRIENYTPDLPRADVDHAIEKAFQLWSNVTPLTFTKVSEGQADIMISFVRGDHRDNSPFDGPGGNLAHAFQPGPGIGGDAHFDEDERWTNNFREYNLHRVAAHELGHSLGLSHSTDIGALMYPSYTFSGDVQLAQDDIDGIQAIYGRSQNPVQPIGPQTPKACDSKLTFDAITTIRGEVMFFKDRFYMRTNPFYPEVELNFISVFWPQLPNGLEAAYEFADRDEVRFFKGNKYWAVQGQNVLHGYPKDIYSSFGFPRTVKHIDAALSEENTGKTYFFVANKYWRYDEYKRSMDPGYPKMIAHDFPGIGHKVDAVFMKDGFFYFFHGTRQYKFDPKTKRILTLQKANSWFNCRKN
Description: (§1) The samples were centrifuged to sediment undigested collagen, and an aliquot of the radioactive supernatant removed for assay on a scintillation counter as a measure of hydrolysis.

[3] = target: T2, stromelysin (Homo sapiens, UniProt P08254); conditions: read-out: Stromelysin IC50; 37°, 16 hours, pH 7.5
T2 sequence (P08254 100-477): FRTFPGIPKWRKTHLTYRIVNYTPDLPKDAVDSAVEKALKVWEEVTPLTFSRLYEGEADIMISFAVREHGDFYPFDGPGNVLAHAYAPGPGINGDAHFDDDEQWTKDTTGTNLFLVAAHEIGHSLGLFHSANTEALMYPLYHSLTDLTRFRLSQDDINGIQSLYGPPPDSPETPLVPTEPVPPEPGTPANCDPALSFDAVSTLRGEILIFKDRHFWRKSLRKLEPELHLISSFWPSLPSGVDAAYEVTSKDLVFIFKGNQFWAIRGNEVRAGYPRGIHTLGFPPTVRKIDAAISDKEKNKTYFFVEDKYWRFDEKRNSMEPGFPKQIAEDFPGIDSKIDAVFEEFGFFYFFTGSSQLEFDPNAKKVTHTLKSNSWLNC
Description: (§2) The casein was acetylated ^14 C casein prepared by the method of Cawston et al (ibid).

[4] = Blood concentration over time after oral gavage in rats, determined as collagenase inhibitory activity of extracts; conditions: for AUC (0-6 h) in number of IC50's × hours: oral gavage, male rats, Example 1: average of two results; for AUC(0-t) at 6 h / Tmax: rat, po
Experimental: (§3) The concentration over time of compounds of the invention in the blood of laboratory animals following administration of the test compounds was measured.
(§4) Test compounds were administered by gavage to 6 male rats (300 g) per treatment group. Blood samples were removed by tail venepuncture at 0.5, 1.0, 2.0, 6.0 and 24 hours post administration. 0.4 ml of blood was placed into 4.5 ml tubes containing 0.1 ml acid citrate dextrose (ACD) as anti-coagulant. For extraction, 3 ml methanol was added and the precipitated blood pelletted by centrifugation (30 min at 3000 rpm). A 2 ml aliquot of supernatant was removed and concentrated by lyophilisation. The extract was redissolved in 200 μl DMSO and a 10 μl aliquot assayed for collagenase inhibitory activity.

[5] = test system: TNF α release from U937 cells; experiment: Inhibition of PMA-stimulated TNF α release from U937 cells (ELISA); assay type: cell-based; conditions: Homo sapiens, read-out: IC50 for release of TNF α (average concentration inhibiting release by 50% relative to control)
[6] = target: T1, collagenase; experiment: biochemical
Description: as §1

[7] = rat, in vivo, po, 360 min
Experimental: as §3, §4

[8] = in vivo; conditions: rat, po
Experimental: as §3, §4

[9] = target: T2, stromelysin; experiment: biochemical
Description: as §2

[10] = test system: adjuvant-induced arthritis; experiment: Adjuvant-induced arthritis model (hindpaw swelling); assay type: in vivo, male Lewis rats; conditions: b.i.d. days 13 to 17, Example 1 dosed at 10 mg/kg
Experimental: The activities of the compound of example 1 above and comparison compound C1 (see Biological Example A above) were assessed in an adjuvant-induced arthritis model. Adjuvant arthritis was produced in male Lewis rats (Charles River) by a single intradermal injection of 0.75 mg of M. butyricum in light paraffin oil (Freunds complete adjuvant--FCA) into the base of the tail. The "secondary" lesion occurs after a delay of 10 days, and is characterised by inflammation of the […] volumes were measured plethysmographically by water displacement. The test compound was dosed b.i.d. from days 13 to 17. Paw volume on day 20 was measured and compared to that on day 13. The experiment was terminated on day 23.

[11] = test system: HOSP1.P mammary carcinoma cells; experiment: Lung colonisation assay, rat mammary carcinoma model; assay type: in vivo
Experimental: The compound of example 1 above was tested for activity in vivo in a rat mammary carcinoma model. A lung colonisation assay was performed in order to determine whether the compound of example 1 above is effective in inhibiting lung colonisation by circulating HOSP1.P mammary carcinoma cells after oral administration.
HOSP1.P cells (1×10^5 cells/animal) were administered to two groups of 12 rats by injection into the jugular vein. The product of example 1 was administered p.o. to one group at 30 mg/kg at -4, +1, +6, +24 and +72 hours relative to tumor cell inoculation at 0 hours. The second (control) group received only vehicle (p.o.) by the same schedule. Animals were killed after 34 days. Lungs were removed and individual tumors counted after 24 hours fixation in Methacarn. […] (p<0.01, Mann-Whitney, two tailed).

[12] = U-937, U937 cells, PMA 50 nM, 18 hours, 37° C.

Compound | solubility [1] | IC50 [6] | IC50 [9] | other results
CCOC(=O)CNC(=O)[C@H](CC(C)C)NC(=O)[C@H](CC(C)C)[C@H](CCCCN1C(=O)c2ccccc2C1=O)C(=O)NO [Example C2] | < 100 µg/mL | – | – | IC50 [2]: 7 nM; IC50 [3]: 70 nM; AUC (0-6 h) in number of IC50's × hours [4]: 2.12 n IC50 's × h; AUC(0-t) at 6 h [4]: 5.3 ng·h/mL; Tmax [4]: 60 min
CC(C)C[C@@H](C(=O)NC1CCCCCCCCCCNC1=O)[C@H](O)C(=O)NO (stereo partly drawn) [Example 5, N^3-[3S-Hydroxy-4-(N-hydroxyamino)-2R-isobutylsuccinyl]amino-1-azacyclotridecan-2-one] | 140 µg/mL (≈ 350 µM) | 20 nM | – | IC50 [5, 12]: < 50000 nM
CNC(=O)[C@H](Cc1ccc(-c2ccccc2)cc1)NC(=O)[C@H](CC(C)C)[C@H](O)C(=O)NO [Example 4, N^2-[3S-Hydroxy-4-(N-hydroxyamino)-2R-isobutylsuccinyl]-L-(4-phenyl)-phenylalanine-N^1-methylamide] | 110 µg/mL (≈ 249 µM) | – | – | –
CNC(=O)[C@@H](NC(=O)[C@H](CC(C)C)[C@H](O)C(=O)NO)C(C)(C)C [Example 10, N^2-[3S-Hydroxy-4-(N-hydroxyamino)-2R-isobutylsuccinyl]-L-tert-leucine-N^1-methylamide] | 1400 µg/mL (≈ 4220 µM) | – | – | IC50 ([5]; U-937, 18 h): < 50000 nM; AUC (0-6 h) in number of IC50's × hours [7]: 190 n IC50 's × h; AUC(0-t) at 6 h [8]: 343 ng·h/mL; Tmax [8]: 30 min
CNC(=O)[C@H](Cc1cccs1)NC(=O)[C@H](CC(C)C)[C@H](O)C(=O)NO [Example 8, N^2-[3S-Hydroxy-4-(N-hydroxyamino)-2R-isobutylsuccinyl]-L-3-(2-thienyl)alanine-N^1-methylamide] | – | 10 nM | 100 nM | –
CNC(=O)[C@@H](NC(=O)[C@H](CC(C)C)[C@H](O)C(=O)NO)c1ccccc1 [Example 3, N^2-[3S-Hydroxy-4-(N-hydroxyamino)-2R-isobutylsuccinyl]-L-phenylglycine-N^1-methylamide] | 2340 µg/mL (≈ 6660 µM) | 100 nM | – | –
CNC(=O)[C@H](CCC(=O)NO)NC(=O)[C@H](CC(C)C)[C@H](O)C(=O)NO [Example 7, N^2-[3S-Hydroxy-4-(N-hydroxyamino)-2R-isobutylsuccinyl]-L-4-(N-hydroxyamino)glutamic acid-N^1-methylamide] | 180 µg/mL (≈ 497 µM) | 150 nM | 500 nM | –
CC(C)C[C@@H](C(=O)N[C@@H](CC1CCCCC1)C(=O)NCCCN1CCCC1=O)[C@H](O)C(=O)NO [Example 9, N^2-[3S-Hydroxy-4-(N-hydroxyamino)-2R-isobutylsuccinyl]-L-cyclohexyl alanine-N^1-(3-(2-pyrrolidone)propyl)amide] | 1800 µg/mL (≈ 3730 µM) | 30 nM | – | –
CNC(=O)[C@H](Cn1cccn1)NC(=O)[C@H](CC(C)C)[C@H](O)C(=O)NO [Example 6, N^2-[3S-Hydroxy-4-(N-hydroxyamino)-2R-isobutylsuccinyl]-L-3-(1-pyrazolyl)alanine-N^1-methylamide] | 330 µg/mL (≈ 929 µM) | 30 nM | 3000 nM | –
CCOC(=O)[C@H](C)NC(=O)[C@H](CC(C)C)NC(=O)[C@@H](CC(=O)NO)CC(C)C [Example C1, reference compound] | 300 µg/mL (≈ 747 µM) | 15 nM | 300 nM | reduction in swelling relative to control (paw volume day 20 vs day 13) [10]: no effect; AUC (0-6 h) in number of IC50's × hours [4]: 7.4 n IC50 's × h; AUC(0-t) at 6 h [4]: 91.7 ng·h/mL; Tmax [4]: 30 min
CNC(=O)[C@H](Cc1ccc(OCC(=O)O)cc1)NC(=O)[C@H](CC(C)C)[C@H](O)C(=O)NO [Example 2, N^2-[3S-Hydroxy-4-(N-hydroxyamino)-2R-isobutylsuccinyl]-L-(4-oxymethylcarboxy) phenylalanine-N^1-methylamide] | 13100 µg/mL (≈ 29900 µM) | 30 nM | 200 nM | IC50 [5, 12]: < 50000 nM
CNC(=O)[C@H](CC1CCCCC1)NC(=O)[C@H](CC(C)C)[C@H](O)C(=O)NO [Example 1, N^2-[3S-Hydroxy-4-(N-hydroxyamino)-2R-isobutylsuccinyl]-L-cyclohexyl alanine-N^1 methylamide] | 100 µg/mL (≈ 269 µM) | – | 60 nM | reduction in swelling relative to control (paw volume day 20 vs day 13) [10]: statistically significant (p<0.01) reduction in swelling relative to control; Lung Colony Number, Mean ([11]; 30 mg/kg p.o. at -4, +1, +6, +24, +72 hours, 34 days, control mean 70.50): 38.91; Lung Colony Number, Median ([11]; 30 mg/kg p.o. at -4, +1, +6, +24, +72 hours, 34 days, control median 71.50, p <0.01): 38.50; extrapulmonary tumors ([11]; 30 mg/kg p.o., 34 days): No extrapulmonary tumors were found; inhibition of lung colonisation relative to control group ([11]; 30 mg/kg p.o., p<0.01, Mann-Whitney, two tailed): significant inhibition of lung colonisation relative to the control group; IC50 [5, 12]: < 50000 nM; AUC (0-6 h) in number of IC50's × hours [4]: 46.2 n IC50 's × h; AUC(0-t) at 6 h [4]: 143 ng·h/mL; Tmax [4]: 30 min
